{"source": "patent US20250388605A1", "about": "“HETEROBIFUNCTIONAL COMPOUNDS AND METHODS OF TREATING DISEASE” (Halda Therapeutics OpCo, Inc., priority 2022, published 2025)", "key": {"T47D cells": {"tested_on": "T47D cells", "experiment": "Cellular Growth Inhibition Assay for T47D Cells (CellTiter-Glo)", "format": "cell-based, human", "details": "Homo sapiens, 72 hours", "procedure,_shortened": "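GI50 values derive from four-parameter regression of CellTiter-Glo 2.0 luminescence, using zero luminescence as baseline. Human breast cancer T47D cells (3000/well; DMEM, 10% FBS, 0.2 units/mL insulin) were exposed for 72 h to compound dilutions at 0.5% DMSO, with dosing starting 24 h after seeding.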"}, "BRD4-BD2": {"target": "T1, BRD4-BD2 (Homo sapiens, UniProt O60885)", "T1 construct": "made in house; host or cells: T7 phage grown in an E. coli host derived from the BL21 strain", "experiment": "Binding affinity to BRD4-BD2 (bromoKdELECT assay)", "details": "11-point 3-fold dilution series"}}, "note": "pKd: −log10 of the molar value.", "data": [{"molecule": "CCS(=O)(=O)Nc1ccc(Oc2cccc(OCCOC3CCN(c4ncc(C(=O)N[C@H]5C(C)(C)[C@H](Oc6ccc(C#N)c(Cl)c6)C5(C)C)cn4)CC3)c2)c(-c2cn(C)c(=O)c3[nH]ccc23)c1", "note": "[Compound I-6]", "values": [{"measurement": "GI50", "setting": "T47D cells", "result": "< 500", "unit": "nM"}, {"measurement": "pKd", "setting": "BRD4-BD2", "result": "6.30 to 7.30"}]}, {"molecule": "Cn1cc(-c2ccccc2Oc2cccc(OCCOC3CCN(c4ncc(C(=O)N[C@H]5C(C)(C)[C@H](Oc6ccc(C#N)c(Cl)c6)C5(C)C)cn4)CC3)c2)c2cc[nH]c2c1=O", "note": "[Compound I-61, N-((1r, 3r)-3-(3-chloro-4-cyanophenoxy)-2,2,4,4-tetramethylcyclobutyl)-2-(4-(2-(3-(2-(6-methyl-7-oxo-6,7-dihydro-1H-pyrrolo[2,3-c]pyridin-4-yl)phenoxy)phenoxy)ethoxy)piperidin-1-yl)pyrimidine-5-carboxamide]", "values": [{"measurement": "GI50", "setting": "T47D cells", "result": "< 500", "unit": "nM"}, {"measurement": "pKd", "setting": "BRD4-BD2", "result": "< 5.60"}]}, {"molecule": "CCS(=O)(=O)Nc1ccc(Oc2cccc(N3CC(OC4CCN(c5ncc(C(=O)N[C@H]6C(C)(C)[C@H](Oc7ccc(C#N)c(Cl)c7)C6(C)C)cn5)CC4)C3)c2)c(-c2cn(C)c(=O)c3[nH]ccc23)c1", "note": "[Compound I-80]", "values": [{"measurement": "GI50", "setting": "T47D cells", "result": "< 500", "unit": "nM"}, {"measurement": "pKd", "setting": "BRD4-BD2", "result": "6.30 to 7.30"}]}]}
